The source of these data is patent publication US20110044938A1 (NYCOMED GMBH, priority 2006, published 2011).

In assay [1] the test system is RKO (RKOp27) human colon adenocarcinoma cells. Description: Alamar Blue cell viability assay, anti-proliferative/cytotoxic activity on proliferating RKO subclones. Format: cell-based. As to conditions: RKOp27, 72 h, RKO p27 uninduced (proliferating) cells, value = class bound given in Table A, read-out: −logIC50 RKO p27 uninduced (proliferating) (converted). The gist of the method:
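RKOp27 subclones (5000 cells/well) were exposed 24 h after seeding to semi-log compound dilutions in DMEM with 10% FCS, in quadruplicate, for 72 h at 37 °C. Viability was read by Alamar Blue fluorescence (544/590 nm) relative to untreated cells (1% DMSO medium). IC50 came from concentration-effect curves and is reported as −log IC50 [mol/l].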
For orientation: The colour change of resazurin is a common sign of viable cells or microbes.

Assay [2] concerns subclones of RKO colon adenocarcinoma cells (RKOp27 or RKOp21) arrested by Ponasterone A. Put plainly: Alamar Blue cell viability assay, cell cycle specific mode of action: cells arrested by ectopic p27Kip1 induced by Ponasterone A versus proliferating cells. As to conditions: Homo sapiens, RKO p27 induced (arrested) cells, 10 μM Ponasterone A, 72 hours, value = class bound given in Table A, read-out: −logIC50 RKO p27 induced (arrested) (converted). Format: cell-based. The gist of the method:
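RKOp27 or RKOp21 cells, 15000/well in DMEM/10% FCS, either arrested by p27Kip1 induced with 10 μM Ponasterone A or proliferating without inducer; compound added after 24 h, 72 h at 37° C. Alamar Blue fluorescence (544/590 nm), viability as % of untreated cells; −log IC50 reported.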

SMILES strings stand for the structures.

For the compound `CC(CC(=O)Nc1sc2c(c1C#N)CCC(COC(=O)NCc1cccn1C)C2)c1ccccc1` (centres unmarked) [Example 319, (1-Methyl-1H-pyrrol-2-ylmethyl)-carbamic acid 3-cyano-2-(3-phenyl-butanoylamino)-4,5,6,7-tetrahydro-benzo[b] thiophen-6-ylmethyl ester], the IC50 was at most 501 nM in assay [1] and at least 50100 nM in assay [2].

As to `COC(=O)OCC1CCc2c(sc(NC(=O)CCc3cccc(OC)c3)c2C#N)C1` (centres unmarked) [Example 255, Carbonic acid 3-cyano-2-[3-(3-methoxy-phenyl)-propanoylamino]-4,5,6,7-tetrahydro-benzo[b]thiophen-6-ylmethyl ester methyl ester], the IC50 was 501 to 2000 nM in assay [1] and at least 100000 nM in assay [2].

With `CCOc1ccccc1CCC(=O)Nc1sc2c(c1C#N)CCC(OC(=O)NCc1cnoc1C)C2` (centres unmarked) [Example 204, (5-Methyl-isoxazol-4-ylmethyl)-carbamic acid 3-cyano-2-[3-(2-ethoxy-phenyl)-propanoylamino]-4,5,6,7-tetrahydro-benzo[b]thiophen-6-yl ester], the figures for the IC50 in assay [1] and in assay [2] were at most 501 nM and at least 100000 nM, respectively.

Take `COc1cccc(C(C)CC(=O)Nc2sc3c(c2C#N)CCC(COC(=O)NCc2cnn(C)c2)C3)c1` (centres unmarked) [Example 333, (1-Methyl-1H-pyrazol-4-ylmethyl)-carbamic acid 3-cyano-2-[3-(3-methoxy-phenyl)-butanoylamino]-4,5,6,7-tetrahydro-benzo[b]thiophen-6-ylmethyl ester]: the values for the IC50 in assay [1] and in assay [2] were 501 to 2000 nM and at least 10000 nM, respectively.

Take `Cc1ccncc1/C=C/C(=O)Nc1sc2c(c1C#N)CCC(COC(=O)N1CCC(O)CC1)C2` (centres unmarked) [Example 133, 4-Hydroxy-piperidine-1-carboxylic acid 3-cyano-2-[(E)-3-(4-methyl-pyridin-3-yl)-allanoylamino]-4,5,6,7-tetrahydro-benzo[b]thiophen-6-ylmethyl ester]: the IC50 in assay [1] was at most 501 nM; in assay [2], at least 100000 nM.

On to `CCOc1ccccc1CCC(=O)Nc1sc2c(c1C#N)CCC(COC(=O)NCCc1cccnc1)C2` (centres unmarked) [Example 176, (2-Pyridin-3-yl-ethyl)-carbamic acid 3-cyano-2-[3-(2-ethoxy-phenyl)-propanoylamino]-4,5,6,7-tetrahydro-benzo[b]thiophen-6-ylmethyl ester], for which the results for the IC50 in assay [1] and in assay [2] were at most 501 nM and at least 100000 nM, respectively.

In the case of `N#Cc1c(NC(=O)/C=C/c2cccnc2)sc2c1CCC(COC(=O)N1CCC[C@H]1CO)C2` (stereo partly drawn) [Example 104, 2-(S)-(Hydroxymethyl) pyrrolidine-1-carboxylic acid 3-cyano-2-((E)-3-pyridin-3-yl-allanoylamino)-4,5,6,7-tetrahydro-benzo[b]thiophen-6-ylmethyl ester], the IC50 is at most 501 nM in assay [1] and at least 100000 nM in assay [2].

Consider `COc1cccc(C(C)CC(=O)Nc2sc3c(c2C#N)CCC(COC(=O)NCc2ccnn2C)C3)c1` (centres unmarked) [Example 332, (2-Methyl-2H-pyrazol-3-ylmethyl)-carbamic acid 3-cyano-2-[3-(3-methoxy-phenyl)-butanoylamino]-4,5,6,7-tetrahydro-benzo[b] thiophen-6-ylmethyl ester], for which the IC50 is 501 to 2000 nM in assay [1] and at least 50100 nM in assay [2].

In the case of `COc1cccc(C(C)CC(=O)Nc2sc3c(c2C#N)CCC(COC(=O)NCc2cccn2C)C3)c1` (centres unmarked) [Example 338, (1-Methyl-1H-pyrrol-2-ylmethyl)-carbamic acid 3-cyano-2-[3-(3-methoxy-phenyl)-butanoylamino]-4,5,6,7-tetrahydro-benzo[b]thiophen-6-ylmethyl ester], the IC50 in assay [1] is 501 to 2000 nM; in assay [2], at least 50100 nM.

For the compound `N#Cc1c(NC(=O)/C=C/c2cccnc2)sc2c1CCC(COC(=O)NC1CC1)C2` (centres unmarked) [Example 99, Cyclopropyl-carbamic acid 3-cyano-2-((E)-3-pyridin-3-yl-allanoylamino)-4,5,6,7-tetrahydro-benzo[b]thiophen-6-ylmethyl ester], the results for the IC50 in assay [1] and in assay [2] were at most 501 nM and at least 100000 nM, respectively.

As to `N#Cc1c(NC(=O)/C=C/c2cccnc2)sc2c1CC[C@@H](COC(=O)N1CCC[C@H](O)C1)C2` [Example 87d, (S)-3-Hydroxy-piperidine-1-carboxylic acid (R)-3-cyano-2-((E)-3-pyridin-3-yl-allanoylamino)-4,5,6,7-tetrahydro-benzo[b]thiophen-6-ylmethyl ester], the IC50 is at most 501 nM in assay [1] and at least 100000 nM in assay [2].

`CCOc1ccccc1CCC(=O)Nc1sc2c(c1C#N)CCC(COC(=O)OCc1cncs1)C2` (centres unmarked) [Example 215, Carbonic acid 3-cyano-2-[3-(2-ethoxy-phenyl)-propanoylamino]-4,5,6,7-tetrahydro-benzo[b]thiophen-6-ylmethyl ester thiazol-5-ylmethyl ester]: the figures for the IC50 in assay [1] and in assay [2] were at most 501 nM and at least 100000 nM, respectively.

`COc1cccc(C(C)CC(=O)Nc2sc3c(c2C#N)CCC(OC(=O)N2CCOCC2)C3)c1` (centres unmarked) [Example 374, Morpholine-4-carboxylic acid 3-cyano-2-(3-(3-methoxy-phenyl)-butanoylamino)-4,5,6,7-tetrahydro-benzo[b] thiophen-6-yl ester]: the figures for the IC50 in assay [1] and in assay [2] were at most 501 nM and at least 50100 nM, respectively.

`CCNC(=O)OC1CCc2c(sc(NC(=O)/C=C/c3cccnc3)c2C#N)C1` (centres unmarked) [Example 3, Ethyl-carbamic acid 3-cyano-2-((E)-3-pyridin-3-yl-allanoylamino)-4,5,6,7-tetrahydro-benzo[b]thiophen-6-yl ester]: the IC50 in assay [1] is at most 501 nM; in assay [2], at least 100000 nM.

As for `CCn1nccc1CNC(=O)OCC1CCc2c(sc(NC(=O)CC(C)c3cccc(OC)c3)c2C#N)C1` (centres unmarked) [Example 341, (2-Ethyl-2H-pyrazol-3-ylmethyl)-carbamic acid 3-cyano-2-[3-(3-methoxy-phenyl)-butanoylamino]-4,5,6,7-tetrahydro-benzo[b] thiophen-6-ylmethyl ester], the IC50 in assay [1] is 501 to 2000 nM; in assay [2] it was at least 50100 nM.

`COc1cccc(C(C)CC(=O)Nc2sc3c(c2C#N)CCC(COC(=O)NCc2nccn2C)C3)c1` (centres unmarked) [Example 330, (1-Methyl-1H-imidazol-2-ylmethyl)-carbamic acid 3-cyano-2-[3-(3-methoxy-phenyl)-butanoylamino]-4,5,6,7-tetrahydro-benzo[b] thiophen-6-ylmethyl ester]: the results for the IC50 in assay [1] and in assay [2] were 501 to 2000 nM and at least 10000 nM, respectively.

Consider `Cc1nc(CNC(=O)OCC2CCc3c(sc(NC(=O)CC(C)c4cccnc4)c3C#N)C2)cs1` (centres unmarked) [Example 377, (2-Methyl-thiazol-4-ylmethyl)-carbamic acid 3-cyano-2-(3-pyridin-3-yl-butanoylamino)-4,5,6,7-tetrahydro-benzo[b]thiophen-6-ylmethyl ester], for which the results for the IC50 in assay [1] and in assay [2] were 501 to 2000 nM and at least 10000 nM, respectively.

On to `CC(CC(=O)Nc1sc2c(c1C#N)CCC(COC(=O)NCc1ccno1)C2)c1ccccc1` (centres unmarked) [Example 353, Isoxazol-5-ylmethyl-carbamic acid 3-cyano-2-(3-phenyl-butanoylamino)-4,5,6,7-tetrahydro-benzo[b] thiophen-6-ylmethyl ester], for which the IC50 in assay [1] was at most 501 nM; in assay [2], at least 100000 nM.

With `CCNC(=O)OC1CCc2c(sc(NC(=O)/C=C/c3ccccc3OCC)c2C#N)C1` (centres unmarked) [Example 5, Ethyl-carbamic acid 3-cyano-2-[(E)-3-(2-ethoxy-phenyl)-allanoylamino]-4,5,6,7-tetrahydro-benzo[b]thiophen-6-yl ester], the IC50 in assay [1] was at most 501 nM; in assay [2], at least 10000 nM.
